Measured values from US11433086B2, “Combination of T-cell checkpoint inhibitors with inhibitors of e-selectin or CXCR4, or with heterobifunctional inhibitors of both E-selectin and CXCR4” (GlycoMimetics, Inc., priority 2016, dated 2022).

System: T-Cells (CD4+ and CD8+), Tregs, MDSCs and checkpoint markers in tumors and spleens
Assay: Flow cytometry immune profile of tumors and spleens, Day 15
Assay type: in vivo, Balb/c mice
Experimental: The anti-cancer activity of an anti-mPD-L1 antibody (10F.9G2) and GMI-1359 was compared to a rat isotype control antibody against indeterminate subcutaneous CT26.WT carcinoma xenografts in female Balb/c mice. An immune profile of each mouse was determined by sampling tumors and spleens, staining for several markers of an active immune response, and detecting the levels of these markers via flow cytometry. Flow cytometry markers included: T-Cells (CD4^+ and CD8^+), Regulatory T-Cells (Tregs). (CD4^+/CD25^+/FoxP3^+), MDSCs (CD11b^+/Gr1^+) and co-expression of CCR7^+ and CD62^+ added to the existing CD4/CD8 panel.
At 24 hours after the final dose of GMI-1359 (Day 15), all mice from Groups 7-12 were euthanized for tumor and spleen collection. All mice were euthanized via over exposure to carbon dioxide. The tumors and spleens were excised and placed in a labeled 5 mL sampling tube filled with cold PBS and placed on ice. The tumors and spleens were provided to the Molecular Imaging's in vitro group for flow cytometric analysis.
For tumor dissociation, the tumor was weighed and <1 g tissue was processed according to Miltenyi Tumor Dissociation Protocol 2.2.1, Dissociation of soft tumors, before proceeding to the red blood cell lysis.
For spleen dissociation, the plunger on a 3 mL syringe was used to crush the spleen in 10 mL DPBS until organ was well broken up and the DPBS became cloudy with cells. The cell suspension was then filtered with a 70 μm strainer on a 50 mL tube and washed with 20 mL DPBS. The suspension was then centrifuged for 7 minutes at 300 rcf and the supernatant was discarded before proceeding the red blood cell lysis.
For the red blood cell lysis, each of the tumor and spleen samples were re-suspended in 3 mL ACK Lysis Buffer and then incubated for 5 minutes at room temperature. The suspension was diluted by adding 10 mL DPBS, and then the cells were collected via centrifugation for 5 minutes at 300 rcf. The cells were again re-suspended in 30 mL DPBS and counted. The suspension was centrifuged again, and the supernatant was discarded before proceeding to the Fc block.
For the Fc block, each of the tumor and spleen samples were re-suspended at 1E+06 cells per 100 μL in Flow Cytometry Staining buffer with 1 μL Fc block per 1E+06 cells. The suspensions were incubated for 5 minutes at room temperature, then centrifuged for 5 minutes at 300 rcf, and the supernatant was removed before proceeding to surface staining.
For the surface staining, the following antibody dilutions were prepared, 50 μL per reaction in Flow Cytometry Staining Buffer (except FoxP3):
For surface staining, the tumor and spleen cells were re-suspended at 1E+06 cells per 50 μL. Each of the 50 μL cell suspensions containing 1E+06 cells was added to 50 μL antibodies diluted in staining buffer in round-bottom 96-well plate. The plate was incubated for 30 minutes in the dark at room temperature on the orbital shaker, setting 2.5. The samples were diluted by adding 200 μL Flow Cytometry Staining Buffer and then centrifuged for 5 minutes at 300 rcf. The supernatant was aspirated and the cells were washed wash by re-suspending in 250 μL Flow Cytometry Staining Buffer and spinning. If staining for intracellular markers, after washing, the sample was then prepared according to the intracellular staining procedure described below. The samples were then re-suspended in 250 μL Flow Cytometry Staining Buffer and were ready for Flow Cytometry Analysis.
When staining for intracellular markers, following the wash step, the cells were re-suspended in 200 μL FoxP3 Fixation/Permeabilization working solution and incubated for 30 minutes in the dark at room temperature. The samples were then centrifuged at 400 rcf for 5 minutes at room temperature, then the supernatant was discarded. 200 μL 1× permeabilization buffer was added to each well. The samples were centrifuged at 400 rcf for 5 minutes at room temperature, then the supernatant was discarded. […]

CCC1CC(C(=O)NCCNCc2ccc(CN3CCCNCCNCCCNCC3)c(Br)c2)CC(OC2OC(CO)C(O)C(O[C@@H](CC3CCCCC3)C(=O)O)C2NC(C)=O)C1OC1OC(C)C(O)C(O)C1O (stereo partly drawn) [GMI-1359]
average percentage of CCR7^+/CD62L^+ cells within the CD8^+ T-cell population in spleens (spleens, Day 15, Groups 8-12): 1.00%
average percentage of CD4^+ T-cells expressing CCR7 but not CD62L in spleens (spleens, Day 15, Groups 8-12): 33.36%
average percentage of CD4^+ T-cells expressing CD62L but not CCR7 in spleens (spleens, Day 15, Groups 8-12): 5.42%
average percentage of CD4^+ T-cells expressing both CCR7 and CD62L in spleens (spleens, Day 15, Groups 8-12): 2.05%
average percentage of CD4^+ cells in spleens (spleens, Day 15, Groups 8-12): 13.43%
average percentage of CD8^+ T-cells expressing CCR7 but not CD62L in spleens (spleens, Day 15, Groups 8-12): 27.95%
average percentage of CD8^+ T-cells expressing CD62L but not CCR7 in spleens (spleens, Day 15, Groups 8-12): 2.94%
average percentage of CD8^+ cells in spleens (spleens, Day 15, Groups 8-12): 8.77%
average percentage of MDSCs in spleens (spleens, Day 15, Groups 8-12): 3.70%
average percentage of Tregs in spleens (spleens, Day 15, Groups 8-12): 10.00%
average percentage of cells expressing CTLA-4 in spleens (spleens, Day 15, Groups 8-12): 12.31%
average percentage of cells expressing PD-1 in spleens (spleens, Day 15, Groups 8-12): 5.53%
average percentage of cells expressing PD-L1 in spleens (spleens, Day 15, Groups 8-12): 81.50%
percentage of CD4^+/CCR7^+/CD62L^+ cells in spleens, change (spleens, Day 15, compared to vehicle, GMI-1359 or isotype control antibody, respectively): did not
average percentage of (CD4^+) cells expressing CD62L but not CCR7 in tumors (tumors, Day 15, Groups 8-12): 31.43%
average percentage of CCR7^+/CD62L^+ cells within the CD8^+ T-cell population in tumors (tumors, Day 15, Groups 8-12): 25.84%
average percentage of CD4^+ T-cells expressing both CCR7 and CD62L in tumors (tumors, Day 15, Groups 8-12): 25.32%
average percentage of CD8^+ cells in tumors (tumors, Day 15, Groups 8-12): 15.61%
average percentage of cells expressing CTLA-4 in tumors (tumors, Day 15, Groups 8-12): 42.80%
average percentage of cells expressing PD-1 in tumors (tumors, Day 15, Groups 8-12): 23.39%
average percentage of cells expressing PD-L1 in tumors (tumors, Day 15, Groups 8-12): 34.44%
average percentage of myeloid-derived suppressor cells (MDSCs) in tumors (tumors, Day 15, Groups 8-12): 2.66%
average percentage of regulatory T-cells (Tregs) in tumors (tumors, Day 15, Groups 8-12): 2.93%
detection of CD4^+/CCR7^+/CD62L^− and CD8^+/CCR7^+/CD62L^− populations in tumor samples (tumors, Day 15, Groups 8-12): Neither CD4^+/CCR7^+/CD62L^− nor CD8^+/CCR7^+/CD62L^− populations were detected
percentage of CD8^+ T-cells expressing CD62L but not CCR7 in tumors (tumors, Day 15, Groups 8-12): 25.65%
average percentage of CD4^+ cells in tumors (tumors, Day 15, Groups 8-12 (GMI-1359 40 mg/kg IP Days 3-14, antibody 10 mg/kg IP Days 3,6,10,13)): 7.02%
percentage of Treg among tumor infiltrating cells (summary comparison) (tumors, Day 15, groups 8, 10, 12, saline group 7 3.3%): 2.9%
